Test results: patent US8666718B2, “Structure of the C-terminal region of the insulin receptor α-chain and of the insulin-like growth factor receptor α-chain” (The Walter and Eliza Hall Institute of Medical Research, priority 2009, dated 2014)
Like-named read-outs stand apart in the source and are kept apart here. Bridge positions count the residues as written; N and C are the ends. Ends that are not written are not given here. Peptide text beside a SMILES is read from it.

Assays:
[1] = biological target: T1, IR485 pre-complexed with a 10-fold molar ratio of IR classical αCT peptide (Homo sapiens, UniProt P06213, I448T/Q492K/Y171H); test: ITC titration against IR485 pre-complexed with a 10-fold molar ratio of IR αCT peptide; assay type: binding; conditions: 25° C., IR485 + 10 × IR-αCT, mean of three ± SEM
T1 construct: host or cells: Lec8 mutant CHO cells (IR485)
Method: (§1) The IR485 construct of human IR was expressed in Lec8 mutant CHO cells and purified by gel filtration chromatography as described previously (Lou et al., 2006). IR485 consists of the first 485 residues of the mature human insulin receptor followed by the 16-residue sequence […] (SEQ ID NO: 10), which comprises a serine residue followed by an enterokinase cleavage site and a c-myc epitope tag. The c-myc tag was not removed for the ITC studies described here. IR485 was concentrated to 30 mg/ml in Tris-buffered saline (TBSA; 24.8 mM Tris-HCl (pH 8.0), 137 mM NaCl, 2.7 mM KCl and 0.02% sodium azide) using an Ultrafree centrifugal concentrator (Millipore, USA). Porcine insulin (Sigma-Aldrich, USA) was prepared in a zinc-free-form (termed ZFP-insulin) by extensive dialysis against 0.1% (v/v) acetic acid followed by lyophilization.
Peptides were prepared by dissolving in 10 mM HCl at ˜4 mg/ml concentration and then diluting with TBSA. Oxidation of peptides S519N20 and S519 (which contain two cysteine residues) was carried out by incubating the respective peptide (prepared at 1 mg/ml in 50 mM ammonium bicarbonate adjusted to pH 8.5 with ammonia solution) in the dark at room temperature for 2 days and then lyophilizing before use. […] All protein concentrations were determined by absorbance measurement at 280 nm using a NanoDrop 1000 spectrophotometer (Thermo Scientific, USA).
ITC experiments were performed using a VP-ITC isothermal titration calorimeter (MicroCal Inc., USA) with the calorimeter cell held at 25° C. All samples were degassed prior to injection or placement into the cell, and the instrument was temperature equilibrated prior to the start of the injections. In all experiments the volume of sample placed in the cell was 1.4 ml and the titrant was injected in 7 μl volumes over 14 s at 3 min intervals, with the total number of injections being 40. […] Data were analyzed using the instrument's software incorporated within the Origin 7 software (OriginLab, USA) and in all cases fitted as a single-site interaction using the methodologies outlined in the instrument's manual.

[2] = biological target: T2, IR485 (first three N-terminal domains of the human insulin receptor) (Homo sapiens, UniProt P06213, I448T/Q492K/Y171H); test: ITC titration of hormones, αCT peptides and insulin mimetic peptides against IR485; assay type: binding; conditions: for ΔH^0 / −TΔS^0: sample IR485 alone, mean of three ± SEM
T2 construct: made in house; host or cells: Lec8 mutant CHO cells
Text: In order to study ligand binding to the first three domains of IR ectodomain, isothermal titration calorimetry (ITC) was used. ITC allowed a direct assay of the interactions between the IR ectodomain classical αCT peptide (residues 704-719; SEQ ID NO: 11) and IR485 (a construct consisting of the first three N-terminal domains of the IR; SEQ ID NO: 10), as well as the interaction between the analogous peptide of human IGF-1R and IR485. At the same time the thermodynamics of binding of the N- and C-terminal segments of the insulin mimetic peptide S519 (Schäffer et al., 2003) to IR485, as well as the binding of S519 itself to IR485 were examined. S519 ([…]; SEQ ID NO: 16) is a 36-residue peptide resulting from the affinity-optimization of two covalently-linked peptides, S371, a so-called “Site 1” peptide, and S446, a so-called “Site 2” peptide (Pillutla et al., 2002). […] Finally, the binding to IR485 of the IR αCT peptide carrying a F714A mutation (residues 704-719, […]; SEQ ID NO: 12) was examined.
The IR485 construct of human IR was expressed in Lec8 mutant CHO cells and purified by gel filtration chromatography as described previously (Lou et al., 2006). IR485 consists of the first 485 residues of the mature human insulin receptor followed by the 16-residue sequence […] (SEQ ID NO: 10), which comprises a serine residue followed by an enterokinase cleavage site and a c-myc epitope tag. The c-myc tag was not removed for the ITC studies described here. IR485 was concentrated to 30 mg/ml in Tris-buffered saline (TBSA; 24.8 mM Tris-HCl (pH 8.0), 137 mM NaCl, 2.7 mM KCl and 0.02% sodium azide) using an Ultrafree centrifugal concentrator (Millipore, USA). Porcine insulin (Sigma-Aldrich, USA) was prepared in a zinc-free-form (termed ZFP-insulin) by extensive dialysis against 0.1% (v/v) acetic acid followed by lyophilization. Human IGF-I was obtained from Novozymes GroPep (Australia) as “receptor grade” material.
The IR classical αCT peptide (residues 704-719, […]; SEQ ID NO: 11), the IGF-1R classical αCT peptide (residues 691-706, […]; SEQ ID NO: 14) as well as the F714A mutant of IR αCT (denoted IR αCT.714A; SEQ ID NO: 12) were obtained from Genscript Corporation (USA) at the >98% level of purity. The S519N20 peptide ([…]; SEQ ID NO: 17) and the S519C16 peptide ([…]; SEQ ID NO: 18) were obtained from AusPep (Australia) at the >90% level of purity. The S519 peptide ([…]; SEQ ID NO: 16) was obtained from Activotec (UK) at the >85% purity. Peptides were prepared by dissolving in 10 mM HCl at ˜4 mg/ml concentration and then diluting with TBSA. Oxidation of peptides S519N20 and S519 (which contain two cysteine residues) was carried out by incubating the respective peptide (prepared at 1 mg/ml in 50 mM ammonium bicarbonate adjusted to pH 8.5 with ammonia solution) in the dark at room temperature for 2 days and then lyophilizing before use. Oxidation was complete as determined by analysis with Ellman's reagent (5,5′-dithiobis-2-nitrobenzoate). All protein concentrations were determined by absorbance measurement at 280 nm using a NanoDrop 1000 spectrophotometer (Thermo Scientific, USA).
ITC experiments were performed using a VP-ITC isothermal titration calorimeter (MicroCal Inc., USA) with the calorimeter cell held at 25° C. All samples were degassed prior to injection or placement into the cell, and the instrument was temperature equilibrated prior to the start of the injections. In all experiments the volume of sample placed in the cell was 1.4 ml and the titrant was injected in 7 μl volumes over 14 s at 3 min intervals, with the total number of injections being 40. The sample contents were stirred at a speed of 310 rpm over the duration of the titration. All titrants (i.e. ZFP-insulin, IGF-I, IR αCT peptide, IGF-1R αCT peptide, IR αCT.714A peptide, S519, S519N20, and […]) were first injected into a solution of TBSA alone in order ascertain the heat of dilution, which was then subtracted from the data of interest as appropriate. […]

[3] = biological target: human IR (Homo sapiens, UniProt P06213); conditions: Schäffer et al., 2003; cited from earlier work
[4] = biological target: T3, ZFP-insulin (Sus scrofa, UniProt P01315); test: ITC titration of IR αCT peptide against ZFP-insulin; assay type: binding, Porcine; conditions: 25° C.
T3 construct: purchased Sigma-Aldrich
Method: as §1, with “Porcine insulin (Sigma-Aldrich, USA) was prepared in a zinc-free-form (termed ZFP-insulin) by extensive dialysis against 0.1% (v/v) acetic acid followed by lyophilization.” left out
(§2) Peptides were prepared by dissolving in 10 mM HCl at ˜4 mg/ml concentration and then diluting with TBSA. […] All protein concentrations were determined by absorbance measurement at 280 nm using a NanoDrop 1000 spectrophotometer (Thermo Scientific, USA).
(§3) ITC experiments were performed using a VP-ITC isothermal titration calorimeter (MicroCal Inc., USA) with the calorimeter cell held at 25° C. […] Data were analyzed using the instrument's software incorporated within the Origin 7 software (OriginLab, USA) and in all cases fitted as a single-site interaction using the methodologies outlined in the instrument's manual.

[5] = biological target: T4, IGF-I (Homo sapiens, UniProt P05019); test: ITC titration of IGF-1R αCT peptide against IGF-I; assay type: binding; conditions: 25° C.
T4 construct: purchased Novozymes GroPep (Australia)
Method: as §1, with “Porcine insulin (Sigma-Aldrich, USA) was prepared in a zinc-free-form (termed ZFP-insulin) by extensive dialysis against 0.1% (v/v) acetic acid followed by lyophilization.” left out
as §2, §3

[6] = biological target: T5, IR485 pre-complexed with a 10-fold molar ratio of IGF-1R classical αCT peptide (Homo sapiens, UniProt P06213+P08069, I448T/Q492K/Y171H); test: ITC titration against IR485 pre-complexed with a 10-fold molar ratio of IGF-1R αCT peptide; assay type: binding; conditions: 25° C., IR485 + 10 × IGF1R-αCT, mean of three ± SEM
T5 construct: host or cells: Lec8 mutant CHO cells (IR485)
Method: as §1, with “Porcine insulin (Sigma-Aldrich, USA) was prepared in a zinc-free-form (termed ZFP-insulin) by extensive dialysis against 0.1% (v/v) acetic acid followed by lyophilization.” left out
as §2, §3

T2 sequence (P06213 with tags, fused parts or gaps Y171H/I448T/Q492K): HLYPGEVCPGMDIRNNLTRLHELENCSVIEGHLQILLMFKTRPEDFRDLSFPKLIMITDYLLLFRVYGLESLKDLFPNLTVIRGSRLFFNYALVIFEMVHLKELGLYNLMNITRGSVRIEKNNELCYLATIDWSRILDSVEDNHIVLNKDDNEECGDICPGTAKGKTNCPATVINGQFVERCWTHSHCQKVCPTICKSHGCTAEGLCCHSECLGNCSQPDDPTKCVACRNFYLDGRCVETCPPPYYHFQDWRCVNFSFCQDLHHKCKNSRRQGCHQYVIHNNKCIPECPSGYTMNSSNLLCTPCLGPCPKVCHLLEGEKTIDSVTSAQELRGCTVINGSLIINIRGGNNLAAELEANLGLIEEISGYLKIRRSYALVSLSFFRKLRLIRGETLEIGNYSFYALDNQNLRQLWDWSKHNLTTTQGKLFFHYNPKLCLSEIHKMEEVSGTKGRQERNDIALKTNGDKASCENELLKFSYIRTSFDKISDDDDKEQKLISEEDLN
T1 sequence (P06213 with tags, fused parts or gaps Y171H/I448T/Q492K limits assumed, other chains not shown): as the sequence (P06213 with tags, fused parts or gaps Y171H/I448T/Q492K) above
T4 sequence (P05019 49-118 limits assumed): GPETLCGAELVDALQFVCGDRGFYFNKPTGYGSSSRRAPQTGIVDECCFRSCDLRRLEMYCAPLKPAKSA
T3 sequence (P01315 25-54 limits assumed): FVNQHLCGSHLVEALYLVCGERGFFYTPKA
T3 sequence (P01315 88-108 limits assumed): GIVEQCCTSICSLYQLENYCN
Sequence of human IR (P06213 28-758 limits assumed): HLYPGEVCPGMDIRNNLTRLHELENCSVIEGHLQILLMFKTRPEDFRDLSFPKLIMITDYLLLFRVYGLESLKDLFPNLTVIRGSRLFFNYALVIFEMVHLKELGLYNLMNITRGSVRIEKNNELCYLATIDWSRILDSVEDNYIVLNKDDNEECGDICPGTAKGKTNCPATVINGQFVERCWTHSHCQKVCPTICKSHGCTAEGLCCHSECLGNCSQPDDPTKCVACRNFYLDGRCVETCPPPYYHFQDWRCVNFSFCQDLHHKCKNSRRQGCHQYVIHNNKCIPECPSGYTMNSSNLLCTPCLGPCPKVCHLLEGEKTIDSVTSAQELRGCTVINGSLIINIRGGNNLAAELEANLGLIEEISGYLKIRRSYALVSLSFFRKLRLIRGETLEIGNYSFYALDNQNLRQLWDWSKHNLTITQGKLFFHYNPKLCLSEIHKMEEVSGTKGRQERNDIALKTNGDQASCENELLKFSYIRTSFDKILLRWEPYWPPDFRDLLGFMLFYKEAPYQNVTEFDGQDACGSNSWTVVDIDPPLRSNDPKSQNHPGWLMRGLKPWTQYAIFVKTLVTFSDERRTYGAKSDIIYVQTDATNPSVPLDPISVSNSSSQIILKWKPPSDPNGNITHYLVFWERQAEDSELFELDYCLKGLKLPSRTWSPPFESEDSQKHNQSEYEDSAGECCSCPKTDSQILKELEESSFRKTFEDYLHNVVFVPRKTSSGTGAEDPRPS
Sequence of human IR (P06213 763-1382 partner limits assumed): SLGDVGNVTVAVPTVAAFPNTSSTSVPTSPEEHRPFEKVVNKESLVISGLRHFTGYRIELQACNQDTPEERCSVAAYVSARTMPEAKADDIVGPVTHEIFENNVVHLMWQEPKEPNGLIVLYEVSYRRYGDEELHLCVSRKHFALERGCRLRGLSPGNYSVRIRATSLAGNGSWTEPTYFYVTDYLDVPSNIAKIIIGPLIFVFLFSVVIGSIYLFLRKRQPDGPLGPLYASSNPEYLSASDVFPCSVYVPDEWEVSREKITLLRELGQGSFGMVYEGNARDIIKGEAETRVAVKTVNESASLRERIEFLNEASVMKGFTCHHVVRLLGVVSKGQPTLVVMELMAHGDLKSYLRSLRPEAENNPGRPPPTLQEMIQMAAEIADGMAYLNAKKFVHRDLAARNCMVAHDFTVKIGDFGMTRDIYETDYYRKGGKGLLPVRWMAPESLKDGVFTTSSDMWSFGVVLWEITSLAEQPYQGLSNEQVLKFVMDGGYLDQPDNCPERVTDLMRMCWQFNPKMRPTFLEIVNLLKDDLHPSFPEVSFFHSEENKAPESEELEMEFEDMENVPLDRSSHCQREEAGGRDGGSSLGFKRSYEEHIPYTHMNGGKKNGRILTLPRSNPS
T5 sequence (P06213 with tags, fused parts or gaps Y171H/I448T/Q492K limits assumed, other chains not shown): as the sequence (P06213 with tags, fused parts or gaps Y171H/I448T/Q492K) above

## CC(C)C[C@H](NC(=O)[C@H](CCC(N)=O)NC(=O)[C@H](CCCNC(=N)N)NC(=O)[C@H](CCC(=O)O)NC(=O)[C@H](Cc1ccccc1)NC(=O)[C@H](Cc1c[nH]c2ccccc12)NC(=O)[C@H](CC(=O)O)NC(=O)[C@H](Cc1ccc(O)cc1)NC(=O)[C@H](Cc1ccccc1)NC(=O)[C@H](CO)NC(=O)[C@H](CCC(=O)O)NC(=O)[C@H](CC(=O)O)NC(=O)[C@H](CC(C)C)NC(=O)[C@H](CO)NC(=O)CN)C(=O)NCC(=O)O [S519C16]
[1]
  ΔH^0: -7.89 ± 0.48 kcal/mol
  −TΔS^0: -2.63 ± 0.72 kcal/mol
[2]
  Kd: 0.0026 ± 0.0007 µM
[2]; ITC, 25° C.
  ΔH^0: -14.6 ± 0.96 kcal/mol
  −TΔS^0: 2.87 ± 0.96 kcal/mol

## CC(C)C[C@H](NC(=O)[C@@H](N)CO)C(=O)N[C@@H](CCC(=O)O)C(=O)N[C@@H](CCC(=O)O)C(=O)N[C@@H](CCC(=O)O)C(=O)N[C@@H](Cc1c[nH]c2ccccc12)C(=O)N[C@@H](C)C(=O)N[C@@H](CCC(N)=O)C(=O)N[C@H](C(=O)N[C@@H](CCC(=O)O)C(=O)N[C@H]1CSSC[C@@H](C(=O)N2CCC[C@H]2C(=O)N[C@@H](CO)C(=O)O)NC(=O)CNC(=O)[C@H](CCCNC(=N)N)NC(=O)CNC(=O)[C@H](Cc2ccc(O)cc2)NC(=O)[C@H](C(C)C)NC(=O)[C@H](CCC(=O)O)NC1=O)C(C)C [S519N20] (H-SLEEEWAQVECEVYGRGCPS-OH; disulfide 11-18)
[2]
  Kd: > 1000 µM

## CC(C)C[C@H](NC(=O)[C@H](CCC(N)=O)NC(=O)[C@H](CCCNC(=N)N)NC(=O)[C@H](CCC(=O)O)NC(=O)[C@H](Cc1ccccc1)NC(=O)[C@H](Cc1c[nH]c2ccccc12)NC(=O)[C@H](CC(=O)O)NC(=O)[C@H](Cc1ccc(O)cc1)NC(=O)[C@H](Cc1ccccc1)NC(=O)[C@H](CO)NC(=O)[C@H](CCC(=O)O)NC(=O)[C@H](CC(=O)O)NC(=O)[C@H](CC(C)C)NC(=O)[C@H](CO)NC(=O)CNC(=O)[C@H](CO)NC(=O)[C@@H]1CCCN1C(=O)[C@@H]1CSSC[C@H](NC(=O)[C@H](CCC(=O)O)NC(=O)[C@@H](NC(=O)[C@H](CCC(N)=O)NC(=O)[C@H](C)NC(=O)[C@H](Cc2c[nH]c3ccccc23)NC(=O)[C@H](CCC(=O)O)NC(=O)[C@H](CCC(=O)O)NC(=O)[C@H](CCC(=O)O)NC(=O)[C@H](CC(C)C)NC(=O)[C@@H](N)CO)C(C)C)C(=O)N[C@@H](CCC(=O)O)C(=O)N[C@@H](C(C)C)C(=O)N[C@@H](Cc2ccc(O)cc2)C(=O)NCC(=O)N[C@@H](CCCNC(=N)N)C(=O)NCC(=O)N1)C(=O)NCC(=O)O [S519] (H-SLEEEWAQVECEVYGRGCPSGSLDESFYDWFERQLG-OH; disulfide 11-18; N-terminus and C-terminus assumed)
[3]
  Kd: 0.02 nM
[2]
  Kd: 0.011 ± 0.003 µM
[2]; ITC, 25° C.
  ΔH^0: -16.5 ± 1.4 kcal/mol
  −TΔS^0: 5.74 ± 1.4 kcal/mol

## TFEDYLHNVVAVPRPS [IR-αCT.714A]
[2]
  Kd: 6.5 ± 1.7 µM

## TFEDYLHNVVFVPRPS [IR-αCT]
[4]; interaction with ZFP-insulin, read-out: Kd (estimated, weaker than)
  Kd: > 1000 µM
[4]; sample ZFP-insulin 20 μM, titrant 200 μM, read-out: Kd
  Kd: > 1000 µM
[2]
  Kd: 3.9 ± 1.1 µM

## VFENFLHNSIFVPRPE [IGF1R-αCT]
[5]; interaction with IGF-I, read-out: Kd (estimated, weaker than)
  Kd: > 1000 µM
[5]; sample IGF-I (printed IGF-IR) 20 μM, titrant 200 μM, read-out: Kd
  Kd: > 1000 µM
[2]
  Kd: 17.6 ± 2.1 µM

## ZFP-insulin: Porcine insulin (Sigma-Aldrich) prepared in a zinc-free form by dialysis against acetic acid and lyophilization
[6]
  Kd: 0.0057 ± 0.0011 µM
[1]
  Kd: 0.017 ± 0.004 µM
[2]; ITC, 25° C., TBSA, sample IR485, mean of three experiments ± SEM, single-site model, read-out: Kd
  Kd: > 1000 µM
